This is an account of results in ChEMBL document CHEMBL5321246, “Aurones: A Promising Scaffold to Inhibit SARS-CoV-2 Replication” (J Nat Prod, 2023).

Each structure is given as a SMILES string.

Series [1] deals with SARS-CoV-2. The series is described as follows: Antiviral activity against SARS-CoV-2 B.1 lineage isolate infected in human Calu-3 cells assessed as inhibition of viral replication infected with cells for 1 hr followed by compound addition and measured 24 hrs post infection by crystal violet staining based PFU assay. Format: functional, organism-based. As to conditions: Severe acute respiratory syndrome coronavirus 2, B.1, Calu-3.

Series [2] can be described thus: Cytotoxicity against human Calu-3 cells assessed as cell viability at 250 uM incubated for 72 hrs by methylene blue assay relative to control. Format: toxicity, cell-based. As to conditions: read-out: Activity.
The subject of series [3] is SARS-CoV-2. In words: Antiviral activity against SARS-CoV-2 B.1 lineage isolate infected in human Calu-3 cells assessed as inhibition of viral replication at 10 uM infected with cells for 1 hr followed by compound addition and measured 24 hrs post infection by crystal violet staining based PFU assay relative to control. Format: functional. As to conditions: Severe acute respiratory syndrome coronavirus 2, B.1, Calu-3.

Series [4] concerns SARS-CoV-2. In words: Antiviral activity against SARS-CoV-2 B.1 lineage isolate infected in human Calu-3 cells assessed as inhibition of viral replication at 1 uM infected with cells for 1 hr followed by compound addition and measured 24 hrs post infection by crystal violet staining based PFU assay relative to control. As to conditions: Severe acute respiratory syndrome coronavirus 2, B.1, Calu-3. Type of series: functional.

Series [5] in a line: Cytotoxicity against human Calu-3 cells assessed as reduction in cell viability incubated for 72 hrs by methylene blue assay. Type of series: toxicity, cell-based.
The nature of series [6]: Selectivity index, ratio of CC50 for cytotoxicity against human Calu-3 cells to EC50 for antiviral activity against SARS-CoV-2 B.1 lineage isolate infected in human Calu-3 cells. Type of series: toxicity, cell-based. As to conditions: read-out: Ratio CC50/EC50.
Series [7] concerns SARS-CoV-2. In words: Antiviral activity against SARS-CoV-2 B.1 lineage infected in human Calu-3 cells assessed as inhibition of viral replication. Type of series: functional, organism-based. As to conditions: Severe acute respiratory syndrome coronavirus 2, B.1, Calu-3.
Series [8] deals with SARS-CoV-2. The series is described as follows: Antiviral activity against SARS-CoV-2 in presence of ritonavir. Type of series: functional, organism-based. As to conditions: Severe acute respiratory syndrome coronavirus 2.
The test system of series [9] is SARS-CoV-2. The series is described as follows: Antiviral activity against SARS-CoV-2. Type of series: functional, organism-based. As to conditions: Severe acute respiratory syndrome coronavirus 2.
Series [10] deals with SARS-CoV-2. The series is described as follows: Antiviral activity against SARS-CoV-2 in presence of lopinavir. Type of series: functional, organism-based. As to conditions: Severe acute respiratory syndrome coronavirus 2.
Series [11] has as its system SARS-CoV-2. The series is described as follows: Antiviral activity against SARS-CoV-2 infected in human Calu-3 cells. Format: functional, organism-based. As to conditions: Severe acute respiratory syndrome coronavirus 2, Calu-3.
A short description of series [12]: Cytotoxicity against African green monkey Vero E6 cells assessed as reduction in cell viability by CCK8 assay. Type of series: toxicity, cell-based, Vero C1008. As to conditions: chlorocebus sabaeus. For orientation: Formazan colour is commonly taken as a measure of viable cells.

Regarding `COCOc1ccc2c(c1)O/C(=C\c1ccc(OC)cc1)C2=O`, the EC50 (usually the midpoint of the concentration-response curve) with SARS-CoV-2 [1] stood at 0.58 µM. The viability at 72 h, 250 µM in series [2] was at least 80%. For the same compound, the inhibition – broadly, the relative decrease from the control value, in per cent – at 10 µM with SARS-CoV-2 [3] stood at 98%. Also, the inhibition at 1 µM in the series with SARS-CoV-2 [4] was determined as 77.6%. For the same compound, in series [5], the CC50 (in general, the concentration at which the toxic effect on the cells reaches its halfway point) at 72 h is above 1000 µM. Besides, in series [6], the selectivity ratio is above 1670.
As to `O=c1cc(-c2ccc(O)cc2)oc2cc(O)cc(O)c12` [APIGENIN], in the series on SARS-CoV-2 [7], the EC50 was 5.1 µM.
Consider `Cc1cccc(C)c1OCC(=O)N[C@@H](Cc1ccccc1)[C@@H](O)C[C@H](Cc1ccccc1)NC(=O)[C@H](C(C)C)N1CCCNC1=O` [LOPINAVIR], for which the EC50 with SARS-CoV-2 [8] is 5 µM.
Turning to `COc1ccc(/C=C2\Oc3cc(OC(F)F)ccc3C2=O)cc1`, the EC50 in the series with SARS-CoV-2 [1] was found to be 0.9 µM. Moreover, the viability at 72 h, 250 µM in series [2] was at least 80%. Moreover, in the series on SARS-CoV-2 [3], the inhibition at 10 µM was found to be 97.1%. Also, the inhibition at 1 µM with SARS-CoV-2 [4] is 69.9%. For the same compound, the CC50 at 72 h in series [5] is above 300 µM. In addition, the selectivity ratio in series [6] is above 333.
Compound `CCC(CC)COC(=O)[C@H](C)N[P@](=O)(OC[C@H]1O[C@@](C#N)(c2ccc3c(N)ncnn23)[C@H](O)[C@@H]1O)Oc1ccccc1` gave an EC50 in the series on SARS-CoV-2 [9] of 2.5 µM.
As to `COc1ccc(/C=C2\Oc3cc4c(cc3C2=O)OCO4)cc1`, the EC50 in the series on SARS-CoV-2 [1] was 2 µM. Moreover, in series [2], the viability at 72 h, 250 µM is at least 80%. The inhibition at 10 µM in the series on SARS-CoV-2 [3] came to 95.8%. Besides, the inhibition at 1 µM with SARS-CoV-2 [4] is 32.5%. The cytotoxic concentration (CC50) at 72 h in [5] is above 1000 µM. The selectivity ratio in series [6] was above 500.
In the case of `O=c1c(O)c(-c2ccc(O)c(O)c2)oc2cc(O)cc(O)c12` [QUERCETIN], the EC50 with SARS-CoV-2 [7] is 2.4 µM.
For `COCOc1cc(OCOC)c2c(c1)O/C(=C\c1ccc(OC)cc1)C2=O`, the viability at 72 h, 250 µM in [2] was at least 80%. Also, in the series on SARS-CoV-2 [3], the inhibition at 10 µM amounted to 95.2%. Further, the inhibition at 1 µM in the series on SARS-CoV-2 [4] is below 1%.
As for `CC(C)C(=O)OC[C@H]1O[C@@H](n2cc/c(=N\O)[nH]c2=O)[C@H](O)[C@@H]1O` [MOLNUPIRAVIR], in the series with SARS-CoV-2 [9], it took 2 µM to reach a half-maximal effect (EC50).
With `COCOc1ccc2c(c1)O/C(=C\c1ccc(OC)c(OCOC)c1)C2=O`, the half-maximal effective concentration (EC50) in the series on SARS-CoV-2 [1] was 0.5 µM. Also, the viability at 72 h, 250 µM in [2] is at least 80%. In the series with SARS-CoV-2 [3], the inhibition at 10 µM is 95.4%. Moreover, the inhibition at 1 µM with SARS-CoV-2 [4] turned out to be 77%. The CC50 at 72 h in [5] was 817 µM. Also, the selectivity ratio in [6] was 1630.
For the compound `CC(C)c1nc(CN(C)C(=O)N[C@H](C(=O)N[C@@H](Cc2ccccc2)C[C@H](O)[C@H](Cc2ccccc2)NC(=O)OCc2cncs2)C(C)C)cs1` [RITONAVIR], the EC50 in the series with SARS-CoV-2 [10] is 5 µM.
Turning to `COc1ccc(/C=C2\Oc3cc(OC)ccc3C2=O)cc1`, the EC50 in the series with SARS-CoV-2 [1] worked out at 1.5 µM. In series [2], the viability at 72 h, 250 µM is at least 80%. Besides, the inhibition at 10 µM with SARS-CoV-2 [3] came out at 94.8%. Further, in the series with SARS-CoV-2 [4], the inhibition at 1 µM came to 46.5%. Moreover, in series [5], the CC50 at 72 h was above 300 µM. In series [6], the selectivity ratio is above 200.
As to `COCOc1cc(/C=C2\Oc3ccccc3C2=O)ccc1OC`, in the series on SARS-CoV-2 [1], the EC50 was 1 µM. Also, the viability at 72 h, 250 µM in series [2] was at least 80%. For the same compound, in the series on SARS-CoV-2 [3], the inhibition at 10 µM amounted to 97.6%. For the same compound, in the series on SARS-CoV-2 [4], the inhibition at 1 µM was 60.3%. For the same compound, in [5], the CC50 at 72 h is above 300 µM. For the same compound, the selectivity ratio in series [6] was above 300.
With `COc1ccc(/C=C2\Oc3cc(O)ccc3C2=O)cc1O`, the EC50 in the series on SARS-CoV-2 [1] came out at 5.6 µM. For the same compound, in series [2], the viability at 72 h, 250 µM was at least 80%. Also, the inhibition at 10 µM in the series with SARS-CoV-2 [3] stood at 24.4%. In the series with SARS-CoV-2 [4], the inhibition at 1 µM worked out at 70.4%. Moreover, in [5], the CC50 at 72 h is above 250 µM. Besides, the selectivity ratio in series [6] was above 44.6.
Regarding `COc1ccc(/C=C2\Oc3ccccc3C2=O)cc1` [4'-METHOXY-AURONE], in series [2], the viability at 72 h, 250 µM is at least 80%. Moreover, the inhibition at 10 µM in the series with SARS-CoV-2 [3] was determined as 66.9%. In addition, the inhibition at 1 µM with SARS-CoV-2 [4] amounted to 29.2%.
Take `O=c1cc(-c2ccccc2)oc2cc(O)c(O)c(O)c12` [BAICALEIN]: a half-maximal effect with SARS-CoV-2 [11] (EC50) was put at 1.2 µM. For the same compound, the CC50 in [12] was above 200 µM.
With `COc1ccc(/C=C2\Oc3cc(OCc4ccc(F)cc4)ccc3C2=O)cc1`, the EC50 in the series on SARS-CoV-2 [1] was 2.9 µM. Also, the viability at 72 h, 250 µM in series [2] was at least 80%. The inhibition at 10 µM in the series with SARS-CoV-2 [3] came to 85.2%. Also, in the series on SARS-CoV-2 [4], the inhibition at 1 µM is 14.5%. The half-maximal cytotoxic concentration (CC50) at 72 h in series [5] was above 300 µM. In series [6], the selectivity ratio is above 104.
For `COc1ccc2c(c1)O/C(=C\c1ccc(O)cc1)C2=O`, the EC50 in the series with SARS-CoV-2 [1] amounted to 2.8 µM. In series [2], the viability at 72 h, 250 µM is at least 80%. Moreover, in the series on SARS-CoV-2 [3], the inhibition at 10 µM turned out to be 88.3%. Further, the inhibition at 1 µM in the series with SARS-CoV-2 [4] was determined as 25%. For the same compound, the half-maximal cytotoxic concentration (CC50) at 72 h in [5] is above 300 µM. Further, the selectivity ratio in [6] is above 107.
